From patent US5690906A (The Trustees of the University of Pennsylvania, priority 1995, dated 1997) come the findings set out here.

Like-named read-outs stand apart in the source and are kept apart here.

For data set [1], the target named is T1, 5-HT1A receptor (Rattus norvegicus, UniProt P19327).
T1 construct: from tissue; host or cells: rat hippocampus membrane homogenates
T1 sequence (P19327 1-422): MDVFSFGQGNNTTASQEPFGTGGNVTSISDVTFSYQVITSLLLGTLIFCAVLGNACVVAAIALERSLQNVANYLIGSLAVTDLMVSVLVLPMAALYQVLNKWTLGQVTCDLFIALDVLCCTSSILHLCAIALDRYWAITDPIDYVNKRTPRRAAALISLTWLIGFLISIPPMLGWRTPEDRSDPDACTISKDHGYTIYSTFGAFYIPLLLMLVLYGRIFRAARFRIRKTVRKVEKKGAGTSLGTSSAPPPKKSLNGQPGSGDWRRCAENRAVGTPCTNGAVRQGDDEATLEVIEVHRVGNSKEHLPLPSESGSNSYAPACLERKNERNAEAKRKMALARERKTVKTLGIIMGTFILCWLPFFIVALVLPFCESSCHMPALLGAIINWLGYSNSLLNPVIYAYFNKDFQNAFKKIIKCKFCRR
In words: Inhibition of [^3 H]-8-OH-DPAT binding to rat hippocampal membrane homogenates. The following applies: for Ki: against [^3 H]-8-OH-DPAT, rat hippocampus membranes, read-out: K1 (inhibition constant). As for the experimental part: The hippocampal homogenates were prepared in 100 volumes of ice-cold Tris-HCl buffer (50mM, pH 7.4) and centrifuged at 20,000 g for 20 minutes. […] The final pellets were resuspended in the Tris-buffer containing 2mM of MgCl2. […] The tubes were incubated at 37° C. for fifteen minutes and then terminated by vacuum filtration through glass filters (Schleicher & Schuell, No. 25, Keene, N.H.) soaked with 1% polyethylimine. […] Both Scatchard and competition experiments were analyzed using the iterative least-squarecurve fitting program LIGAND.

Data set [2] deals with dopamine D2S receptor. In words: Specific binding of [^125 I]trans-7-OH-PIPAT to D2S receptors expressed in Sf9 cells. More on the design: species or system rat. The conditions noted are these: data not shown.
For data set [3], the system named is dopamine D2L receptor. In words: Specific binding of [^125 I]trans-7-OH-PIPAT to D2L receptors expressed in Sf9 cells. Details: species or system rat. The following applies: data not shown.
Data set [4] can be described thus: Stability of the radiolabelled product on storage (HPLC). The format is physicochemical. As for the experimental part:
Hydrogen peroxide ([…]) was added to a mixture of […] (1mg/ml EtOH), […] and I-125 (2-3 mCi) in a sealed vial. The reaction was allowed to proceed for 20 min at room temperature, and was then terminated by addition of 0.1 ml of sodium bisulfite (300 mg/ml). The reaction mixture was extracted with ethyl acetate (3×1 ml) after neutralization with saturated NaHCO3 solution. The extracted ethyl acetate layers were evaporated to dryness, and the remaining residue was dissolved in EtOH and purified by HPLC using a reverse phase column (PRP-1 column, Hamilton Co., Reno, Nev.) eluted with an isocratic solvent of 80% acetonitrile-20% pH 7.0 buffer (5 mM 3,3'-dimethylglutaric acid). The fractions containing the desired product were collected, condensed and re-extracted with ethyl acetate (3×1 ml). The no-carrier-added final product (purity >98%) was evaporated to dryness and redissolved in […] with 100 mg ascorbic acid added as an anti-oxidant.
No-carrier-added [^125 I ]trans-8-OH-PIPAT(^125 I]8) was prepared by an iododestannylation reaction similar to the procedure reported previously (Acta. Chim. Scan., 1988, B42, 231-236). Hydrogen peroxide (50 μl 3% w/v) was added to a mixture of 50 μl of tributyltin precursor, 11 (11 mg/ml EtOH), 50 μl of 1N HCl and I-125 (2-3 mCi) in a sealed vial. The reaction was allowed to proceed for 20 minutes at room temperature, and was then terminated by addition of 0.1 ml of sodium bisulfite (300 mg/ml). The reaction mixture was extracted with ethyl acetate (3×1 ml) after neutralization with saturated NaHCO3 solution. The extracted ethyl acetate layers were evaporated to dryness, and the remaining residue was dissolved in EtOH and purified by HPCL using a reverse phase column (PRP-1 column, Hamilton Co., Reno, Nev.) eluted with an isocratic solvent of 80% acetonitrile-20% pH 7.0 buffer (5 mM 3,3'-dimethylglutaric acid); the retention time was 9 minutes (1 ml/min). The fractions containing the desired product were collected, condensed and re-extracted with ethyl acetate (3×1 ml). The final product of no-carrier-added (purity>98%) was evaporated to dryness and redissolved in 100 μl of 50% EtOH with 100 μg of ascorbic acid added as an anti-oxidant. The final product [^125 I] trans-8-OH-PIPAT(^125 I]8) was stored at -20° C.

The target in data set [5] is T2, D3 dopamine receptor (Rattus norvegicus, UniProt P19020).
T2 construct: made in house; host or cells: Sf9 insect cells infected with recombinant baculovirus AcMNPVrD3, membrane homogenates
T2 sequence (P19020 whole entry): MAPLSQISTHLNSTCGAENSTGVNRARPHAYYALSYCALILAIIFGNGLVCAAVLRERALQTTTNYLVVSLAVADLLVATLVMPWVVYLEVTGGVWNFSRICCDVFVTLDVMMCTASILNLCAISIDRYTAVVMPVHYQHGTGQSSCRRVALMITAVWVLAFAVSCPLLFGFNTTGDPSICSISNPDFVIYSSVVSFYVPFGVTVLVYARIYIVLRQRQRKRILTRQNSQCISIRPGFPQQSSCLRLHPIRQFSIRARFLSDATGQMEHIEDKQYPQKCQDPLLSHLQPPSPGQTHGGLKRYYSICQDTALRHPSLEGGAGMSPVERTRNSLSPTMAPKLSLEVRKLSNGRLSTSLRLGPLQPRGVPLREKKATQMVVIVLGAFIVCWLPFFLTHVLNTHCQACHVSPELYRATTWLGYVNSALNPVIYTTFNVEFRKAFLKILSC
Briefly: Inhibition of [^125 I]NCQ298 binding to D3 dopamine receptors expressed in Sf9 cells. The following applies: Table 4; Hill coefficient. As for the experimental part:
The construction of pVL1393-rD3 was previously described. […] An aliquot of membranes was used for radioligand binding.
Membranes from AcMNPV-rD3 infected Sf9 cells were prepared. […] Assays were incubated at 37° C. for 20 min. then filtered and washed as described above.

The target in data set [6] is T3, D2 dopamine receptor (Rattus norvegicus, UniProt P61169).
T3 construct: made in house; host or cells: Sf9 insect cells infected with recombinant baculovirus (AcMNPVrD2L or AcMNPVrD2S), membrane homogenates
T3 sequence (P61169 whole entry): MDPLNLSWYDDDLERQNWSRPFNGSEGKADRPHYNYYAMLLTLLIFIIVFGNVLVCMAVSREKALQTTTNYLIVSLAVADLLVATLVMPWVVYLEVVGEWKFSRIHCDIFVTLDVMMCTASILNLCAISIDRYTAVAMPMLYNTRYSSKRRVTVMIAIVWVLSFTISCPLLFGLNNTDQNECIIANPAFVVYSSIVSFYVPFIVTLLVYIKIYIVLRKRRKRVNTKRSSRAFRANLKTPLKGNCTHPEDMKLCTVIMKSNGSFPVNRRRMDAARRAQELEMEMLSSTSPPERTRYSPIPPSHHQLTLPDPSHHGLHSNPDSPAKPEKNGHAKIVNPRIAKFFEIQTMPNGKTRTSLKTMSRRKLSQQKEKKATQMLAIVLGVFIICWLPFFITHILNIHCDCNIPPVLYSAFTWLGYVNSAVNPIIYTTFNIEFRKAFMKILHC
Briefly: Inhibition of [^125 I]NCQ298 binding to D2 dopamine receptors expressed in Sf9 cells. The following applies: Table 4; Hill coefficient.

In data set [7] the target is D3 receptors (expressed in Sf9 cells) (Rattus norvegicus, UniProt P19020).
Sequence of D3 receptors (expressed in Sf9 cells) (P19020 whole entry): as the sequence (P19020 whole entry) above
Procedure: Plasmid DNA was isolated by alkaline dialysis and purified by CsCl density gradient centrifugation and overnight dialysis for transfection of Sf9 cells. […] A monolayer of Sf9 cells (approximately 2×10^6 cells/T25 plate) was cotransfected by calcium phosphate precipitation, with 1 mg of AcMNPV DNA (provided by Dr. Max Summers, Texas A&M University, College Station, Tex.) and 2 mg of recombinant transfer vector DNA. […] Putative recombinant viral plaques were chosen by visual screening for occlusion-negative plaques and used to infect 1×10^6 Sf9 cells in a 6-well plate (CoStar, Cambridge, Mass.). Four days after infection, cells were harvested and membranes were prepared. An aliquot of membranes was used for radioligand binding. […] The membrane homogenates of AcMNPVrD3 infected Sf9 cells were prepared as described. Briefly, the harvested cells were centrifuged, resuspended and homogenized in buffer containing 50 mM Tris, pH7.4, 150mM NaCl, 10 mM EDTA and a mixture of protease inhibitors (1 mg/ml aprotinin, 1 mg/ml leupeptin, 1 mg/ml soybean trypsin inhibitor, 10 mg/ml PMSF). The final pellets obtained were resuspended in the same buffer and kept at -20° C. for radioligand binding assays.
Binding assays were performed in glass tubes (12×75 mm) in a final volume of 0.2 ml. The buffer used for the dilution contained 50 mM Tris, pH 7.4, and the protease inhibitors mixture. […] The competition experiments were performed in the presence of 120 mM NaCl. […] After incubation for 30 min at 37° C. or 90 min at 25° C., the bound ligand was separated from the free ligand by filtration through glass fiber filters No. 25 (Schleicher & Schuell, Keene, N.H.) soaked with 0.2% protamine free base. The filters were then washed twice with 4 ml of ice-cold buffer (containing 50 mM Tris-HCl, pH 7.4) and the radioactivity on the filters was counted in a gamma counter (Packard 5000) with 70% efficiency.

Turning to `Oc1cccc2c1CC(NC/C=C/I)CC2` (racemic) [(±)trans-8-OH-IPAT, 8-Hydroxy-2-(N-3'-iodo-2'propenyl)aminotetralin], the Ki in data set [1] is 0.01 ± 0.002 µM.

As to `CCCN(C/C=C/I)C1CCc2cccc(OC)c2C1` (mixture of isomers) [(±)trans-8-OMe-PIPAT, trans-8-Methoxy-2-[N-propyl-N-(3'-iodo-2'propenyl)]aminotetralin], in data set [1], the Ki amounted to 0.0126 ± 0.0015 µM.

In the case of `CCCN(C/C=C/[125I])C1CCc2ccc(O)cc2C1` (stereo not drawn) [[^125 I]trans-7-OH-PIPAT], the “specific binding toward D2S” value in data set [2] is given as “no specific binding”. Moreover, the “specific binding toward D2L” value in data set [3] is on record as “no specific binding”. In addition, in data set [4], the “stability of the product on storage” value is on record as “stable for at least four weeks”. Besides, the “purity after storage for at least four weeks” value in data set [4] (50% etoh with ascorbic acid, 672 h) is given as above 95%.

Consider `CCCN(C/C=C/[125I])C1CCc2cccc(O)c2C1` (stereo not drawn) [[^125 I] trans-8-OH-PIPAT], for which the “purity after storage for at least four weeks” value in data set [4] (-20° C., analyzed by HPLC, 40320 min) was 95%. Further, in data set [4] (stored at -20° C., 50% EtOH with ascorbic acid), the “stability of the product on storage” value is listed as “stable for at least four weeks”.

Consider `COc1cccc2c1CC(NC/C=C/I)CC2` (racemic) [(±)trans-8-OMe-IPAT, 8-Methoxy-2-(N-3'-iodo-2'-propenyl) aminotetralin], for which the Ki in data set [1] was 0.017 ± 0.0022 µM.

`CCCN(CCC)C1CCc2ccc(O)cc2C1` (stereo not drawn) [7-OH-DPAT, 7Hydroxy-2-N,N-n-Dipropylaminotetralin, reference compound]: the “HC D3” value in data set [5] is 0.85. Besides, the “HC D2” value in data set [6] is reported as 1.02. In addition, in data set [7] (Table 3, [^125 I]trans-7-OH-PIPAT competition, 37° C., 120 mM NaCl), the “Hill Co.” value was 0.87. Moreover, the “affinity for the D3 receptor” value in data set [7] (competition with [^125 I]trans-7-OH-PIPAT) was “high affinity”.

As for `CCCN(C/C=C/I)C1CCc2cccc(O)c2C1` (mixture of isomers) [(±)trans-8-OH-PIPAT, trans-8-Hydroxy-2-[N-propyl-N-(3'-iodo-2'propenyl)] aminotetralin], in data set [1], the “affinity / selectivity for 5-HT1A” value was “unique high affinity and selectivity toward serotonin 5-HT1A sites”; the Ki amounted to 0.00092 ± 0.00013 µM.
